Laboratory results as given in patent US7714146B2, “Azulene-oxindole compounds as multiple-kinase inhibitors and useful as anticancer agents” (Industrial Technology Research Institute, priority 2006, dated 2010).

Assays:
Type in all cases: biochemical
[1] = molecular target: T1, human FLT-3 (Arg571-Ser993) (Homo sapiens, UniProt P36888); test: FLT-3 kinase assay (HTScan kit, DELFIA); details: for inhibition at 0.1 µM: compound at 0.1 μM, read-out: FLT-3 0.1 μM, % of inhibition relative to control; for inhibition at 1 µM: compound at 1 μM, read-out: FLT-3 1 μM, % of inhibition relative to control; for IC50: read-out: FLT-3 kinase inhibition (IC50)
T1 construct: human FLT-3 (Arg571-Ser993); GST (N); purchased Cell Signaling Technology; host or cells: baculovirus expression system
T1 sequence (P36888 571-993): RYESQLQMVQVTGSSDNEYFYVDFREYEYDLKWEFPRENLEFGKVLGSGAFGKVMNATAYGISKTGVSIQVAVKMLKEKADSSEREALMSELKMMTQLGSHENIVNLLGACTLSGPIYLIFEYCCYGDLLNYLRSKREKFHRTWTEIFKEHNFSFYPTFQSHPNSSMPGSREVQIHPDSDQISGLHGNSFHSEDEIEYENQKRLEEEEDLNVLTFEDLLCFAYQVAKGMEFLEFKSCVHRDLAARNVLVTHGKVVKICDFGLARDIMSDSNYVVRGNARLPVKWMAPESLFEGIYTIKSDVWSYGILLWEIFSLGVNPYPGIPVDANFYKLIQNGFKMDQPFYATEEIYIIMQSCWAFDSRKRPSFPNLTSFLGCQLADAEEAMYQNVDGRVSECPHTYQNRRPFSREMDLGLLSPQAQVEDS
Protocol: (§1) Compounds 1-100 were treated for their efficacy in inhibiting activities of FLT-3, c-KIT, KDR/Flk-1, PDGFR-beta, EGFR, and PKC kinases by biochemical DELFIA (Dissociation Enhanced Lanthanide FIA) assays according to the procedure described below. The assays were conducted by, Division of Cell Engineering, Biomedical Engineering Research Laboratories, Industrial Technology Research Institute, Bldg. 53, 195, sec. 4, Chung Hsing Rd. Chutung, Hsinchu, Taiwan 310, R.O.C.
(§2) The FLT-3 assay was conducted following the protocol described in Protocol for HTScan® FLT-3 Kinase Assay Kit (Cell Signaling Technology®). The assay was conducted under the following conditions: FLT-3 source: The GST-kinase fusion protein was produced using a baculovirus expression system with a construct expressing human FLT-3 (Arg571-Ser993) (GenBank accession No. NM_004119) with an amino-terminal GST tag, substrate: 1.5 μM Gastrin Precursor Biotinylated Peptide (with Tyr87 as phosphorylation site), vehicle: 1% DMSO, pre-incubation time/temperature: 5 minutes at room temperature, incubation time/temperature: 30 minutes at room temperature, incubation buffer: 60 mM HEPES pH 7.5, 5 mM MgCl2, 5 mM MnCl2, 3 μM Na3VO4, 1.25 mM DTT, 20 μM ATP, and quantitative method: DELFIA® Assay.

[2] = molecular target: T2, human c-KIT (Thr544-Val976) (Homo sapiens, UniProt P10721); test: c-KIT kinase assay (HTScan kit, DELFIA); details: for inhibition at 0.1 µM: compound at 0.1 μM, read-out: c-KIT 0.1 μM, % of inhibition relative to control; for inhibition at 1 µM: compound at 1 μM, read-out: c-KIT 1 μM, % of inhibition relative to control; for IC50: read-out: c-KIT kinase inhibition (IC50)
T2 construct: human c-KIT (Thr544-Val976); GST (N); purchased Cell Signaling Technology; host or cells: baculovirus expression system
Protocol: as §1
as §2, with “c-KIT” for “FLT-3”, “GST-c-KIT” for “GST-kinase”, “c-KIT (Thr544-Val976)” for “FLT-3 (Arg571-Ser993) (GenBank accession No. NM_004119)”, “This biotinylated peptide contains the residues surrounding Tyr-996 of KDR,” for “Gastrin Precursor Biotinylated Peptide (with Tyr87 as phosphorylation site),”

[3] = molecular target: T3, human VEGFR-2 (Val789-Val1356) (Homo sapiens, UniProt P35968); test: KDR kinase assay (HTScan VEGFR-2 kit, DELFIA); details: for inhibition at 0.1 µM: compound at 0.1 μM, read-out: KDR 0.1 μM, % of inhibition relative to control; for inhibition at 1 µM: compound at 1 μM, read-out: KDR 1 μM, % of inhibition relative to control
T3 construct: human VEGFR-2 (Val789-Val1356); GST (N); purchased Cell Signaling Technology; host or cells: baculovirus expression system
Protocol: as §1
The KDR assay was conducted following the protocol described in Protocol for HTScan® VEGFR-2 Kinase Assay Kit (Cell Signaling Technology®). The assay was conducted under the following conditions: KDR source: The GST-Kinase fusion protein was produced using a baculovirus expression system with a construct expressing human VEGFR-2 (Val789-Val1356) (GenBank Accession No. NM_002253) with an amino-terminal GST tag, substrate: 1.5 μM Gastrin Precursor Biotinylated Peptide (with Tyr87 as phosphorylation site), vehicle: 1% DMSO, pre-incubation time/temperature: 5 minutes at room temperature, incubation time/temperature: 30 minutes at room temperature, incubation buffer: 60 mM HEPES pH 7.5, 5 mM MgCl2, 5 mM MnCl2, 3 μM Na3VO4, 1.25 mM DTT, 20 μM ATP, and quantitative method: DELFIA® Assay.

T3 sequence (P35968 789-1356): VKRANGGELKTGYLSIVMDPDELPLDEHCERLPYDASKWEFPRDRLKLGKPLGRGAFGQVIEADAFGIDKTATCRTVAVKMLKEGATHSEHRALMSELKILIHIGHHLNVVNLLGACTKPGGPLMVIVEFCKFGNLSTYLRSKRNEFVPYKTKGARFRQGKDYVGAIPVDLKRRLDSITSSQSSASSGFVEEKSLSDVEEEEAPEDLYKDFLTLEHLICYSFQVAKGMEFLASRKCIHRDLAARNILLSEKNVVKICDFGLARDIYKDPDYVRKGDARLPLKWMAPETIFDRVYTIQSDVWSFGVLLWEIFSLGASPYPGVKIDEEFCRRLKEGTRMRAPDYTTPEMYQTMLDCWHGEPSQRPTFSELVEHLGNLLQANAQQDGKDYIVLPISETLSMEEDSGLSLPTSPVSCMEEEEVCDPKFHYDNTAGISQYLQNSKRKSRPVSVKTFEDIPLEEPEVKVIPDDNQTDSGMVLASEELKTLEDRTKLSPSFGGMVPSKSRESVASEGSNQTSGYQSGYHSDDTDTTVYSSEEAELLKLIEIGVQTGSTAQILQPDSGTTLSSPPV
T2 sequence (P10721 544-976): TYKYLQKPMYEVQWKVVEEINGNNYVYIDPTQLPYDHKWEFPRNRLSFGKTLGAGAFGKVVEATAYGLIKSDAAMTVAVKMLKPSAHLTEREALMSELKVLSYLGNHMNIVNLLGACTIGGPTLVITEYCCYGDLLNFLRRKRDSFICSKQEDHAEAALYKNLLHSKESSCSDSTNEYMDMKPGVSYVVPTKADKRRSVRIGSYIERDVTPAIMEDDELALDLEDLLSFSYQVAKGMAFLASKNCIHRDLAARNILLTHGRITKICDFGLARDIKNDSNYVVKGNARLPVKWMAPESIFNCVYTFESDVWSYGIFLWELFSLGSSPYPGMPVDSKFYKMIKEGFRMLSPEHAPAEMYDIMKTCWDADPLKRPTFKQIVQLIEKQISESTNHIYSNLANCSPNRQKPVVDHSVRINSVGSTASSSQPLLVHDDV

| inhibition at 0.1 µM [1] | inhibition at 1 µM [1] | inhibition at 0.1 µM [2] | inhibition at 1 µM [2] | inhibition at 0.1 µM [3] | inhibition at 1 µM [3] | IC50 [1] | IC50 [2] | IC50 ([3]; read-out: KDR kinase inhibition (IC50)) | SMILES |
| --- | --- | --- | --- | --- | --- | --- | --- | --- | --- |
| 14.6% | 44.8% | 42.5% | 57.4% | 30.1% | 88% |  |  |  | Cc1cc(C=C2C(=O)Nc3ncccc32)c2ccccc(OCCCN(C)C)c1-2 [Compound 104, 3-(((3aZ,5Z,7E)-8-(3-(dimethylamino)propoxy)-1-methylazulen-3-yl)methylene)-1H-pyrrolo[2,3-b]pyridin-2(3H)-one] |
| 15.2% | 52.4% | 56.5% | 56.5% | 1.1% | 9.4% |  |  |  | Cc1cc(C=C2C(=O)Nc3cc(F)ccc32)c2ccccc(OCCCN(C)C)c1-2 [Compound 91, 3-[4-(3-Dimethylamino-propoxy)-3-methyl-azulen-1-ylmethylene]-6-fluoro-1,3-dihydro-indol-2-one] |
| 68.9% | 97.2% | 58% | 58% | 29.3% | 89.8% |  |  |  | Cc1cc(C=C2C(=O)Nc3ccc(F)cc32)c2ccccc(OCCCN3CCN(C)CC3)c1-2 [Compound 96, 5-Fluoro-3-{3-methyl-4-[3-(4-methyl-piperazin-1-yl)-propoxy]-azulen-1-ylmethylene}-1,3-dihydro-indol-2-one] |
| 68.3% | 74.9% | 34.2% | 34.2% | 46.5% | 47.8% |  |  |  | Nc1cc2cccccc-2c1C=C1C(=O)Nc2ccc(F)cc21 [Compound 64, 3-(2-Amino-azulen-1-ylmethylene)-5-fluoro-1,3-dihydro-indol-2-one] |
| 16.5% | 43.9% | 18% | 18% | 12.1% | 23.8% |  |  |  | CN(C)Cc1cc(/C=C2/C(=O)Nc3ccccc32)c2cccccc1-2 [Compound 58, 3-(3-Dimethylaminomethyl-azulen-1-ylmethylene)-1,3-dihydro-indol-2-one] |
| 4.4% | 0.2% | 66.2% | 66.2% | 54.1% | 83.9% |  |  |  | Cc1cc(/C=C2/C(=O)N(Cc3ccccc3)c3ccccc32)c2c(C)ccc(C(C)C)cc1-2 [Compound 13, 1-Benzyl-3-(5-isopropyl-3,8-dimethyl-azulen-1-ylmethylene)-1,3-dihydro-indol-2-one] |
|  | 7.6% | 0.6% | 0.6% | 33.8% | 22.1% |  |  |  | O=C1Nc2ccccc2/C1=C\c1ccc2cccccc1-2 [Compound 19, 3-Azulen-1-ylmethylene-1,3-dihydro-indol-2-one] |
| 33.9% | 85.5% | 83.2% | 83.2% |  | 32.8% | 10.1 nM | 77.9 nM |  | CCN(CC)CCCOc1ccccc2c(C=C3C(=O)Nc4ccc(F)cc43)cc(C)c1-2 [Compound 90, 3-[4-(3-Diethylamino-propoxy)-3-methyl-azulen-1-ylmethylene]-5-fluoro-1,3-dihydro-indol-2-one] |
| 74.3% | 96.8% | 34.4% | 34.4% | 38.6% | 63.8% | 25.3 nM | > 1000 nM | 500 nM | Cc1cc(/C=C2/C(=O)Nc3ccc(F)cc32)c2ccccc(OCCCN(C)C)c1-2 [Compound 68, 3-[4-(3-Dimethylamino-propoxy)-3-methyl-azulen-1-ylmethylene]-5-fluoro-1,3-dihydro-indol-2-one] |
| 1.9% | 24.5% | 6.8% | 6.8% |  | 22.4% |  |  |  | O=C1Nc2cc(Br)ccc2/C1=C\c1ccc2cccccc1-2 [Compound 28, 3-Azulen-1-ylmethylene-6-bromo-1,3-dihydro-indol-2-one] |
| 62.5% | 42.5% | 30.5% | 30.5% | 44.2% | 52.6% |  |  |  | O=C1Nc2ccc(F)cc2/C1=C/c1c(Br)c2cccccc-2c1Br [Compound 61, 3-(1,3-Dibromo-azulen-2-ylmethylene)-5-fluoro-1,3-dihydro-indol-2-one] |
| 52.6% | 52.8% | 28.3% | 28.3% | 55.6% | 40.3% |  |  |  | O=C1Nc2ccc(F)cc2/C1=C/c1cc(F)c2cccccc1-2 [Compound 60, 5-Fluoro-3-(3-fluoro-azulen-1-ylmethylene)-1,3-dihydro-indol-2-one] |
|  | 14% | 30.2% | 30.2% |  | 7.4% |  |  |  | CN(C)CCNC(=O)c1cc(/C=C2/C(=O)Nc3ccc(F)cc32)c2cccccc1-2 [Compound 67, 3-(5-Fluoro-2-oxo-1,2-dihydro-indol-3-ylidenemethyl)-azulene-1-carboxylic acid (2-dimethylamino-ethyl)-amide] |
| 70.9% | 98.4% | 65.1% | 65.1% | 35.5% | 93.6% | 9.3 nM | 158 nM |  | Cc1cc(/C=C2\C(=O)Nc3ccc(F)cc32)c2ccccc(OCCCN(C)C)c1-2 [Compound 95, 3-[4-(3-Dimethylamino-propoxy)-3-methyl-azulen-1-ylmethylene]-5-fluoro-1,3-dihydro-indol-2-one] |
| 7.3% | 34.6% | 26.9% | 26.9% | 9.5% | 15.6% |  |  |  | COc1ccc2c(c1)NC(=O)/C2=C/c1ccc2cccccc1-2 [Compound 30, 3-Azulen-1-ylmethylene-6-methoxy-1,3-dihydro-indol-2-one] |
|  | 6% | 31.5% | 31.5% | 17.1% | 69.2% |  |  |  | Cc1cc(/C=C2/C(=O)N(C(c3ccccc3)c3ccccc3)c3ccccc32)c2c(C)ccc(C(C)C)cc1-2 [Compound 14, 1-Benzhydryl-3-(5-isopropyl-3,8-dimethyl-azulen-1-ylmethylene)-1,3-dihydro-indol-2-one] |
